Consider twelve molecules from ChEMBL document CHEMBL1156499, “Tripeptides of RS1 (RSC1A1) inhibit a monosaccharide-dependent exocytotic pathway of Na+-D-glucose cotransporter SGLT1 with high affinity” (J Biol Chem, 2007).

Active and inactive are the calls of the source. The rule behind the calls is not given here. Peptide text beside a SMILES is read from it.

Data set [1] concerns the target T1, Sodium/glucose cotransporter 1 (Homo sapiens) (UniProt P13866).
T1 sequence (whole entry): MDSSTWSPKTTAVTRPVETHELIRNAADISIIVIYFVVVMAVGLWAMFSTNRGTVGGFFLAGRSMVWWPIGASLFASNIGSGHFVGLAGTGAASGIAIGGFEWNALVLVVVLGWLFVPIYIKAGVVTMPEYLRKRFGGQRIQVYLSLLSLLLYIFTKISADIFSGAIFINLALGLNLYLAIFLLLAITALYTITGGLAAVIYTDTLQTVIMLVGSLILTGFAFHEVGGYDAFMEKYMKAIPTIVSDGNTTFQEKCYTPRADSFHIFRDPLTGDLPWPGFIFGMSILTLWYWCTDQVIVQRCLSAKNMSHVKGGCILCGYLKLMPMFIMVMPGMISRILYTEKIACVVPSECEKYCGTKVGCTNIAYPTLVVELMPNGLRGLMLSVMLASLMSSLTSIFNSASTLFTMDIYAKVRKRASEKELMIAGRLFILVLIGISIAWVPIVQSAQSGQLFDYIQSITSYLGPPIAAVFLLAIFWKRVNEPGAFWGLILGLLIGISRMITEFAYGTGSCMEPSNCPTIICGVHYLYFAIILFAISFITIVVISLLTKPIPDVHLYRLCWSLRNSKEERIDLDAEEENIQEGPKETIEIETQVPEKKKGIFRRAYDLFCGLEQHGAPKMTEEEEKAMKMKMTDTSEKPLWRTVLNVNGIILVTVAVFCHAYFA
Nature of the data set: Reversal of inhibition of human SGLT1 expressed in xenopus laevis oocyte assessed as inhibition of methyl-alpha-D-[14C]glucopyranoside uptake at 75 pmol after 1 hr in presence of D-glucose relative to control.

The target of data set [2] is T1, Sodium/glucose cotransporter 1 (Homo sapiens). The data set can be described thus: Reversal of inhibition of human SGLT1 expressed in xenopus laevis oocyte assessed as inhibition of methyl-alpha-D-[14C]glucopyranoside uptake at 75 pmol after 1 hr in presence of D-fructose relative to control.
The target is the same in data set [3]. Nature of the data set: Reversal of inhibition of human SGLT1 expressed in xenopus laevis oocyte by measuring inhibition of methyl-alpha-D-[14C]glucopyranoside uptake after 1 hr assessed concentration required for 50% protective high affinity in presence of 2-deoxyglucose relative to control.
Data set [4] has the same target. The data set can be described thus: Reversal of inhibition of human SGLT1 expressed in xenopus laevis oocyte by measuring inhibition of methyl-alpha-D-[14C]glucopyranoside uptake after 1 hr assessed concentration required for 50 % protective high affinity in presence of D-glucose relative to control.
Data set [5] has the same target. Nature of the data set: Reversal of inhibition of human SGLT1 expressed in xenopus laevis oocyte assessed as inhibition of methyl-alpha-D-[14C]glucopyranoside uptake at 75 pmol after 1 hr in presence of 2-deoxyglucose relative to control.
Data set [6] has the same target. Nature of the data set: Reversal of inhibition of human SGLT1 expressed in xenopus laevis oocyte assessed as inhibition of methyl-alpha-D-[14C]glucopyranoside uptake at 75 pmol after 1 hr in presence of methyl-alpha-D-glucopyranoside relative to control.
Data set [7] addresses T2, Solute carrier family 15 member 1 (Homo sapiens) (UniProt P46059).
T2 sequence (whole entry): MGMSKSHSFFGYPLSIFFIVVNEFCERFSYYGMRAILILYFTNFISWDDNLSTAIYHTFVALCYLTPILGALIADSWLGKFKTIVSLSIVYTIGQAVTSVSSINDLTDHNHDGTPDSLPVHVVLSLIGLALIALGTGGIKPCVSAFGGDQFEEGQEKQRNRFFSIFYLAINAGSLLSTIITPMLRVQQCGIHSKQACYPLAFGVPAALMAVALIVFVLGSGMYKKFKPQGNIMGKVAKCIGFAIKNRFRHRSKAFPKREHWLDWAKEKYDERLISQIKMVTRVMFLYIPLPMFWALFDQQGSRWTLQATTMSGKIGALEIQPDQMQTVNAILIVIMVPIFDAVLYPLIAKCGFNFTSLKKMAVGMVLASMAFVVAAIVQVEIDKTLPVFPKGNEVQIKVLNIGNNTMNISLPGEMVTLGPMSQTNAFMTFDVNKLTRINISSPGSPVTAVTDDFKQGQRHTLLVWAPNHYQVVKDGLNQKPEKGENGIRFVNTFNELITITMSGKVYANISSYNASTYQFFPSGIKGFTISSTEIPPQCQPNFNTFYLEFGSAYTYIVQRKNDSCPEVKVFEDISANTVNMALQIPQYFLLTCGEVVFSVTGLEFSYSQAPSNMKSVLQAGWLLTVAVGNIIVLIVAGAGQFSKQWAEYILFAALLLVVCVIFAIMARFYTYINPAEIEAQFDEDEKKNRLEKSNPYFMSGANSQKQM
The data set can be described thus: Activity of human PepT1 expressed in xenopus laevis oocyte assessed as induction of inward current at 5 mM.

Another data set has as its system Small intestine. The data set can be described thus: Decrease of D-glucose absorption in perfused rat small intestine at 15 mM relative to control. The class given is functional. Set-up: scale not given: the % may be the effect or the level left.
Data set [8] concerns the target T1, Sodium/glucose cotransporter 1 (Homo sapiens). The data set can be described thus: Reversal of inhibition of human SGLT1 expressed in xenopus laevis oocyte by measuring inhibition of methyl-alpha-D-[14C]glucopyranoside uptake after 1 hr assessed concentration required for 50% protective high affinity in presence of methyl-alpha-D-glucopyranoside relative to control.

For data set [9] the target is unchanged. Nature of the data set: Inhibition of human SGLT1 expressed in xenopus laevis oocyte assessed as inhibition of methyl-alpha-D-[14C]glucopyranoside uptake at 75 pmol after 1 hr relative to control. On the set-up: Activity: scale not given: the % may be the effect or the level left.
Substrate in data set [10]: NC(=O)CC[C@H](N)C(=O)N[C@@H](CO)C(=O)N1CCC[C@H]1C(=O)O
Nature of the data set: Activity of human PepT1 expressed in xenopus laevis oocyte assessed as induction of inward current.

A word on the inhibition: it is the drop in the measured response relative to a control, in per cent. A word on the Km: it is the concentration of substrate that gives half-maximal velocity.

`NC(=O)CC[C@H](N)C(=O)N[C@@H](CO)C(=O)N1CCC[C@H]1C(=O)O` (H-Gln-Ser-Pro-OH): the outcome in data set [1], in data set [2], in data set [5], in [6], in data set [7] and in data set [9] was Active. Also, the Activity in data set [3] stood at 11.9 µM; in [4], 30 µM; in the data set with Small intestine it was 30%; in data set [8] it was 53 µM.
For Ac-SVQPCQENQ-OH, the inhibition in data set [9] was found to be 55%.
`CC(=O)N[C@@H](CCC(N)=O)C(=O)N[C@@H](CS)C(=O)N1CCC[C@H]1C(=O)O` (Ac-Gln-Cys-Pro-OH): in data set [7], the result was Active. Besides, the result in [9] was inactive.
Turning to `CC(=O)N1CCC[C@H]1C(=O)N1CCC[C@H]1C(=O)N[C@@H](CCC(N)=O)C(=O)O` (Ac-Pro-Pro-Gln-OH), in data set [9], the result was Active.
Take `NC(=O)CC[C@H](N)C(=O)N[C@@H](CS)C(=O)N1CCC[C@H]1C(=O)O` (H-Gln-Cys-Pro-OH): the result in data set [1], in data set [2], in data set [5], in data set [6] and in data set [9] was Active. Moreover, the Activity stood at 11.9 µM in data set [3] and 53 µM in data set [8].
Consider `CC(=O)N[C@@H](CCC(N)=O)C(=O)N[C@@H](CCC(=O)O)C(=O)N1CCC[C@H]1C(=O)O` (Ac-Gln-Glu-Pro-OH), for which, in [9], the outcome was Active.
Regarding `CC(=O)N1CCC[C@H]1C(=O)N[C@@H](CC(C)C)C(=O)N[C@@H](CCC(N)=O)C(=O)O` (Ac-Pro-Leu-Gln-OH), the outcome in data set [9] was Active.
The same measure, in the same setting: as for `CC(=O)N1CCC[C@H]1C(=O)NCC(=O)N[C@@H](CCC(N)=O)C(=O)O` (Ac-Pro-Gly-Gln-OH), the entry is “Active”.
With `NCC(=O)N[C@@H](CCC(N)=O)C(=O)O` (H-Gly-Gln-OH), the outcome in [7] was Active.
Turning to `CC(=O)N1CCC[C@H]1C(=O)N[C@H](C(=O)N[C@@H](CCC(N)=O)C(=O)O)[C@@H](C)O` (Ac-Pro-Thr-Gln-OH), the outcome in [9] was Active.
As for `CC(=O)N1CCC[C@H]1C(=O)N[C@@H](CO)C(=O)N[C@@H](CCC(N)=O)C(=O)O` (Ac-Pro-Ser-Gln-OH), the Activity in data set [9] is 44%.

B1: Solute carrier family 15 member 1 (Homo sapiens), P46059 (protein)
chain: T2 sequence (whole entry)
In the case of B1, in data set [10], the Km is 4.2 mM.
